# Laboratory results: patent US6545000B1, “[1,2,4]triazolo[1,5-c]pyrimidine derivatives” (Kyowa Hakko Kogyo Co., Ltd., priority 1998, dated 2003)
# Key:
# Rat A2A receptor = target: T1, Rat A2A receptor (Rattus norvegicus, UniProt P30543); experiment: Adenosine A2A receptor binding test (3H-CGS 21680 binding); conditions: 10^−6 mol/L test compound, rat corpus striatum
# T1 construct: from tissue; host or cells: rat corpus striatum membrane preparation
# Procedure: The final precipitate was suspended in 50 mmol/L Tris-HCl buffer (containing 10 mmol/L magnesium chloride and 0.02 unit/mg tissue of adenosine deaminase (manufactured by Sigma Co.)) by adding the buffer to the final precipitate so as to give a tissue concentration of 5 mg (wet weight)/mL.
# Inhibition ratio (%)={1−(amount of the binding in the presence of the test compound−amount of the non-specific binding)/(amount of the total binding−amount of the non-specific binding)}×100
# [1] = test system: reserpine-induced catalepsy; experiment: Activity on reserpine-induced catalepsy; format: in vivo, mouse; conditions: oral; for Remission ratio (%): percentage reduction of total score vs control group; for Total score: total catalepsy score of 10 mice (maximum 50 points), reserpine 5 mg/kg s.c., 1 hour after administration
# Procedure: This test was carried out using 10 animals per group of male ddY mice of 5 week age (22 to 24 g in body weight, Japan SLC). […] Reserpine (5 mg/kg: apoplon, Daiichi Pharmaceutical Co., Ltd.; diluted with distilled water) was subcutaneously administered, and catalepsy-inducing activity was observed from 18 hours after the administration. […] Each test compound was suspended in distilled water for injection containing 0.5% MC (manufactured by Otsuka Pharmaceutical Co., Ltd.) The suspension containing each of the test compounds or a solution containing no test compound (distilled water for injection containing 0.5% MC (manufactured by Otsuka Pharmaceutical Co., Ltd.); control) was orally administered (0.1 mL per 10 g mouse body weight) and, one hour after the administration of test compound, only forelimbs or only hindlimbs of each animal were laid on a stand having a size of 4.5 cm in height and 1.0 cm in width, to measure catalepsy symptoms.
# (§1) The effect was judged by total catalepsy scores of 10 animals in one group (the maximum is 50 points). When the total score was 40 points or less, the activity of the test compound was judged positive. The number of animals showing remission of catalepsy was expressed by the number of cases in which the catalepsy score was 4 points or less in 10 cases. The catalepsy remission ratio was expressed as the percentage reduction of the total score in the test compound-administered group to the total score in the control group.
# [2] = test system: CGS 21680-induced catalepsy; experiment: Activity on CGS 21680-induced catalepsy; format: in vivo, mouse; conditions: 10 mg/kg oral; for inhibition in vivo at 10 mg/kg: Mus musculus, 1 h, percentage reduction of total score vs control group, read-out: Remission ratio (%); for Total score: total catalepsy score of 10 mice (maximum 50 points), 1 hour after administration
# Procedure: This test was carried out using 10 animals per group of male ddY mice of 5 week age (22 to 25 g in body weight, Japan SLC). […] One hour after the administration of the test compound, only forelimbs or only hindlimbs of each animal were laid on a vertically arranged stand made of acryl, having a size of 4.5 cm in height and 1.0 cm in width, to measure catalepsy symptoms. All of the test compounds were administered orally in a dose of 10 mg/kg.
# as §1, with “(the maximum score is 50” for “(the maximum is 50”, “points). When total score” for “points). When the total score”, “of the compounds was judged” for “of the test compound was judged”
# T1 sequence (P30543 whole entry): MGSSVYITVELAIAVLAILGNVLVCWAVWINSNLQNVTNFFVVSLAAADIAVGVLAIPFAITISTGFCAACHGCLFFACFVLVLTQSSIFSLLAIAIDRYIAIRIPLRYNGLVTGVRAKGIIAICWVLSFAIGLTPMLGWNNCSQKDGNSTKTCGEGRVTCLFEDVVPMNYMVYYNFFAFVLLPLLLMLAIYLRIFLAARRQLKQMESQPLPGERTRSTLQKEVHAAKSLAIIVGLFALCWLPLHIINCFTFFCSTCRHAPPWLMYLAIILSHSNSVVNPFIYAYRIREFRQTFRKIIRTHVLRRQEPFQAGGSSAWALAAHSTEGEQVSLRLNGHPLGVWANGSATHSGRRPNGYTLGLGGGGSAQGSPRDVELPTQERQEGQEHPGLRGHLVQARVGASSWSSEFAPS
SMILES,Rat A2A receptor inhibition ratio (%) (Rat A2A receptor),melting point [°C],Remission ratio (%) [1] [%],Total score [1],inhibition in vivo at 10 mg/kg [2] [%],Total score [2]
"CCC(C)(O)CN1CCN(c2cc3nc(-c4ccco4)nn3c(N)n2)CC1 (centres unmarked) [Compound 2, 5-Amino-2-(2-furyl)-7-(4-(2-hydroxy-2-methylbutyl)piperazinyl)[1,2,4]triazolo[1,5-c]pyrimidine]",84,212,,,,
"CC(O)(CN1CCN(c2cc3nc(-c4ccco4)nn3c(N)n2)CC1)c1ccccc1 (centres unmarked) [Compound 3, 5-Amino-2-(2-furyl)-7-(4-(2-hydroxy-2-phenylpropyl)piperazinyl)[1,2,4]triazolo[1,5-c]pyrimidine]",93,267 to 268,,,,
"Nc1nc(N2CCN(CC3(O)CC3)CC2)cc2nc(-c3ccco3)nn12 [Compound 5, 5-Amino-2-(2-furyl)-7-(4-(1-hydroxycyclopropylmethyl)piperazinyl)[1,2,4]triazolo[1,5-c]pyrimidine]",,,76,12,90,5
"COC(C)(C)CN1CCN(c2cc3nc(-c4ccco4)nn3c(N)n2)CC1 [Compound 6, 5-Amino-2-(2-furyl)-7-(4-(2-methoxy-2-methylpropyl)piperazinyl)[1,2,4]triazolo[1,5-c]pyrimidine]",,,78,11,84,8
"CC(C)(O)CCN1CCN(c2cc3nc(-c4ccco4)nn3c(N)n2)CC1 [Compound 7, 5-Amino-2-(2-furyl)-7-(4-(3-hydroxy-3-methylbutyl)piperazinyl)[1,2,4]triazolo[1,5-c]pyrimidine]",,,,23,,8
"CCC(C)(O)CCN1CCN(c2cc3nc(-c4ccco4)nn3c(N)n2)CC1 (centres unmarked) [Compound 8, 5-Amino-2-(2-furyl)-7-(4-(3-hydroxy-3-methylpentyl)piperazinyl)[1,2,4]triazolo[1,5-c]pyrimidine]",84,196 to 197,,,,
"CC(O)(CCN1CCN(c2cc3nc(-c4ccco4)nn3c(N)n2)CC1)c1ccccc1 (centres unmarked) [Compound 9, 5-Amino-2-(2-furyl)-7-(4-(3-hydroxy-3-phenylbutyl)piperazinyl)[1,2,4]triazolo[1,5-c]pyrimidine]",89,123 to 124,,,,
"CCC(O)(CC)CCN1CCN(c2cc3nc(-c4ccco4)nn3c(N)n2)CC1 [Compound 10, 5-Amino-2-(2-furyl)-7-(4-(3-ethyl-3-hydroxypentyl)piperazinyl)[1,2,4]triazolo[1,5-c]pyrimidine]",87,,,,78,11
"CC(C)(O)CCCN1CCN(c2cc3nc(-c4ccco4)nn3c(N)n2)CC1 [Compound 13, 5-Amino-2-(2-furyl)-7-(4-(4-hydroxy-4-methylpentyl)piperazinyl)[1,2,4]triazolo[1,5-c]pyrimidine]",,,,,80,10
"CC(C)(O)CCCCN1CCN(c2cc3nc(-c4ccco4)nn3c(N)n2)CC1 [Compound 14, 5-Amino-2-(2-furyl)-7-(4-(5-hydroxy-5-methylhexyl)piperazinyl)[1,2,4]triazolo[1,5-c]pyrimidine]",,,76,12,82,9
"Nc1nc(N2CCN(Cc3ccc4nsnc4c3)CC2)cc2nc(-c3ccco3)nn12 [Compound 20, 5-Amino-7-(4-(benzo-2,1,3-thiadiazol-5-ylmethyl)piperazinyl)-2-(2-furyl)[1,2,4]triazolo[1,5-c]pyrimidine]",,,,,90,5

# Further lines, with some results ahead:
Rat A2A receptor inhibition ratio (%) (Rat A2A receptor),melting point [°C],SMILES,Remission ratio (%) [1] [%],Total score [1],inhibition in vivo at 10 mg/kg [2] [%],Total score [2]
88,194 to 195,"COC(C)(C)CCN1CCN(c2cc3nc(-c4ccco4)nn3c(N)n2)CC1 [Compound 11, 5-Amino-2-(2-furyl)-7-(4-(3-methoxy-3-methylbutyl)piperazinyl)[1,2,4]triazolo[1,5-c]pyrimidine]",,,,
92,220 to 221,"Nc1nc(N2CCN(Cc3cn4ccccc4n3)CC2)cc2nc(-c3ccco3)nn12 [Compound 15, 5-Amino-2-(2-furyl)-7-(4-(imidazo[1,2-a]pyridin-2-ylmethyl)piperazinyl)[1,2,4]triazolo[1,5-c]pyrimidine]",,,,
88,242 to 244,"Nc1nc(N2CCN(Cc3cn4ccncc4n3)CC2)cc2nc(-c3ccco3)nn12 [Compound 16, 5-Amino-2-(2-furyl)-7-(4-(imidazo[1,2-a]pyrazin-2-ylmethyl)piperazinyl)[1,2,4]triazolo[1,5-c]pyrimidine]",,,,
90,244 to 246,"Nc1nc(N2CCN(Cc3cn4cccnc4n3)CC2)cc2nc(-c3ccco3)nn12 [Compound 17, 5-Amino-2-(2-furyl)-7-(4-(imidazo[1,2-a]pyrimidin-2-ylmethyl)piperazinyl)[1,2,4]triazolo[1,5-c]pyrimidine]",,,,
96,284 to 286,"Nc1nc(N2CCN(Cc3nc4ccccc4[nH]3)CC2)cc2nc(-c3ccco3)nn12 [Compound 18, 5-Amino-7-(4-(benzimidazol-2-ylmethyl)piperazinyl)-2-(2-furyl)[1,2,4]triazolo[1,5-c]pyrimidine]",,,,
95,,"Nc1nc(N2CCN(Cc3nc4ccccc4s3)CC2)cc2nc(-c3ccco3)nn12 [Compound 19, 5-Amino-7-(4-(benzothiazol-2-ylmethyl)piperazinyl)-2-(2-furyl)[1,2,4]triazolo[1,5-c]pyrimidine]",62,19,90,5
84,,"Cc1cc(CN2CCN(c3cc4nc(-c5ccco5)nn4c(N)n3)CC2C)no1 (centres unmarked) [Compound 22, 5-Amino-2-(2-furyl)-7-(3-methyl-4-(5-methylisoxazol-3-ylmethyl)piperazinyl)[1,2,4]triazolo[1,5-c]pyrimidine]",74,13,98,1
75,,"Cc1cc(C(C)N2CCN(c3cc4nc(-c5ccco5)nn4c(N)n3)CC2)no1 (centres unmarked) [Compound 23, 5-Amino-2-(2-furyl)-7-(4-(1-(5-methylisoxazol-3-yl)ethyl)piperazinyl)[1,2,4]triazolo[1,5-c]pyrimidine]",,,,
96,,"Cc1nocc1CN1CCN(c2cc3nc(-c4ccco4)nn3c(N)n2)CC1 [Compound 24, 5-Amino-2-(2-furyl)-7-(4-(3-methylisoxazol-4-ylmethyl)piperazinyl)[1,2,4]triazolo[1,5-c]pyrimidine]",72,14,96,2
95,244 to 246,"Cc1onc(-c2ccccc2)c1CN1CCN(c2cc3nc(-c4ccco4)nn3c(N)n2)CC1 [Compound 25, 5-Amino-2-(2-furyl)-7-(4-(5-methyl-3-phenylisoxazol-4-ylmethyl)piperazinyl)[1,2,4]triazolo[1,5-c]pyrimidine]",,,,
94,287 to 288,"Nc1nc(N2CCN(Cc3ccc4c(c3)OCC(=O)N4)CC2)cc2nc(-c3ccco3)nn12 [Compound 26, 5-Amino-2-(2-furyl)-7-(4-(3-oxo-3,4-dihydro-2H-benzo[1,4]oxazin-7-ylmethyl)piperazinyl)[1,2,4]triazolo[1,5-c]pyrimidine]",,,,
96,,"Nc1nc(N2CCN(Cc3ccc4c(c3)NC(=O)CO4)CC2)cc2nc(-c3ccco3)nn12 [Compound 27, 5-Amino-2-(2-furyl)-7-(4-(3-oxo-3,4-dihydro-2H-benzo[1,4]oxazin-6-ylmethyl)piperazinyl)[1,2,4]triazolo[1,5-c]pyrimidine]",,,92,4
